Values of other authors as cited in patent US6063383A, “Pharmaceutical suppository composites for fever and influenza and method of producing the composites” (priority 1999, dated 2000).

Test system: small rats
Conditions: rat, in vivo

For `NCCS(=O)(=O)O` [taurine], the “spontaneous and pedaling activities” value is given as “can reduce the combined action of spontaneous activities and pedaling activities”.
